According to publication PMC9611521, “Optimization of Resveratrol Used as a Scaffold to Design Histone Deacetylase (HDAC-1 and HDAC-2) Inhibitors” (Pharmaceuticals, 2022):

Assays:
Format in all cases: biochemical
Details in all cases: compound at 10 µM
HDAC-11 = target: T1, HDAC-11 (Homo sapiens, UniProt Q96DB2); assay: Enzymatic HDAC selectivity panel, HDAC-11
T1 sequence (Q96DB2 1-347): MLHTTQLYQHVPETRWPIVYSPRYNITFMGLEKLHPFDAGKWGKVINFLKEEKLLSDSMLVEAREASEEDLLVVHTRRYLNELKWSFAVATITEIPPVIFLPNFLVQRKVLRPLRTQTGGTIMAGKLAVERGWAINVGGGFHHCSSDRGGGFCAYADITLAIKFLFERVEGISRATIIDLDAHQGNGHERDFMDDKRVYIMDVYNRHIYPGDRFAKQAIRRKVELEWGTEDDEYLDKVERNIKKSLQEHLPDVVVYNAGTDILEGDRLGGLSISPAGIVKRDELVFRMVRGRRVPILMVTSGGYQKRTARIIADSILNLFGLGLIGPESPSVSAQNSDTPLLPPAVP
Protocol: (§1) Enzymatic assays to evaluate HDAC inhibition were performed, and the design involved three steps: (a) Preliminary screening to identify the most promising compounds; (b) Evaluation by a panel of HDAC isoforms to investigate selectivity; and (c) Determination of IC50 values. Firstly, compounds (4–7; 15–26) were evaluated at 10 µM against HDAC-1 and HDAC-2 (Table 2).
(§2) The enzymatic assay to evaluate HDAC inhibitory effects for all final compounds against the distinct isoforms was carried out in accordance with the previously described procedures (Lopes et al., 2021). All compounds were initially screened at 10 µM against HDAC-1 and HDAC-2. […] All the compounds were dissolved in DMSO. A serial dilution of the compounds was performed in 100% DMSO with the highest concentration at 1 mM. Each intermediate compound dilution (in 100% DMSO) was diluted 10x in assay buffer to form a 10% DMSO intermediate dilution in HDAC assay buffer. 5 µL of this dilution was added to a 50 µL reaction to bring the final concentration of DMSO to 1% in all the reactions. […] The fluorescence intensity was measured at an excitation of 360 nm and emission of 460 nm using a Tecan Infinite M1000 microplate reader, and the percentage of activity was calculated using the formula: % activity = (F − Fb)/(Ft − Fb), where F = the intensity of fluorescence in the presence of the compound. […]

HDAC-9 = HDAC-9 (Homo sapiens, UniProt Q9UKV0); assay: Enzymatic HDAC selectivity panel, HDAC-9
HDAC-9, sequence (Q9UKV0 whole entry): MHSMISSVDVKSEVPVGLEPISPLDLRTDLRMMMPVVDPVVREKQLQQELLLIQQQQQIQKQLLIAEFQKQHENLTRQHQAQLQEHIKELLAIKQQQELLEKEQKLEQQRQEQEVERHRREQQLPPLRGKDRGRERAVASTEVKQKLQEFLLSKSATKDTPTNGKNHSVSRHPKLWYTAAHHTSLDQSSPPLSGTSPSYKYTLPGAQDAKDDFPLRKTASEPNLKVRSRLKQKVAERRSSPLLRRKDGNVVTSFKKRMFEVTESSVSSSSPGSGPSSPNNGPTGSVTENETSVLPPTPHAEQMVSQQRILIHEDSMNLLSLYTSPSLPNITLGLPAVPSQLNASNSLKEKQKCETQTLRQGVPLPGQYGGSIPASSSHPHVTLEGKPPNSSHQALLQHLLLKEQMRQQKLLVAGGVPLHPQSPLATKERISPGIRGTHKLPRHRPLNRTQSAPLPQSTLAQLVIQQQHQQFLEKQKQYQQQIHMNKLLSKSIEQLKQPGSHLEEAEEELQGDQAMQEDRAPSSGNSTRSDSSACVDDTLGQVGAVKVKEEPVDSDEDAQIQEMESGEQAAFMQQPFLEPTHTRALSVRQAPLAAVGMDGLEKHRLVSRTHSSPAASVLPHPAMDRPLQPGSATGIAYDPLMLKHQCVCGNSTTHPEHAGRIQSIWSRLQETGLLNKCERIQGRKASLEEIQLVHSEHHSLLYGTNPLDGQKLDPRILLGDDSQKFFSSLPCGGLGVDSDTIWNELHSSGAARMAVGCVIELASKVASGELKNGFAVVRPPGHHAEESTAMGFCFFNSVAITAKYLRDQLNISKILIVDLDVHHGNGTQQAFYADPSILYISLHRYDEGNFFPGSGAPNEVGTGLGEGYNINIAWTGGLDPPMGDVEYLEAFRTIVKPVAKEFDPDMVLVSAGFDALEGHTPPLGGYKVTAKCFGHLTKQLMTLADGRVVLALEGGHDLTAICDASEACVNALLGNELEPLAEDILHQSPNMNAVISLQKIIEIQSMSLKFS
Protocol: as §1, §2

HDAC-6 = target: T2, HDAC-6 (Homo sapiens, UniProt Q9UBN7); assay: Enzymatic HDAC selectivity panel, HDAC-6
T2 sequence (Q9UBN7 1-1215): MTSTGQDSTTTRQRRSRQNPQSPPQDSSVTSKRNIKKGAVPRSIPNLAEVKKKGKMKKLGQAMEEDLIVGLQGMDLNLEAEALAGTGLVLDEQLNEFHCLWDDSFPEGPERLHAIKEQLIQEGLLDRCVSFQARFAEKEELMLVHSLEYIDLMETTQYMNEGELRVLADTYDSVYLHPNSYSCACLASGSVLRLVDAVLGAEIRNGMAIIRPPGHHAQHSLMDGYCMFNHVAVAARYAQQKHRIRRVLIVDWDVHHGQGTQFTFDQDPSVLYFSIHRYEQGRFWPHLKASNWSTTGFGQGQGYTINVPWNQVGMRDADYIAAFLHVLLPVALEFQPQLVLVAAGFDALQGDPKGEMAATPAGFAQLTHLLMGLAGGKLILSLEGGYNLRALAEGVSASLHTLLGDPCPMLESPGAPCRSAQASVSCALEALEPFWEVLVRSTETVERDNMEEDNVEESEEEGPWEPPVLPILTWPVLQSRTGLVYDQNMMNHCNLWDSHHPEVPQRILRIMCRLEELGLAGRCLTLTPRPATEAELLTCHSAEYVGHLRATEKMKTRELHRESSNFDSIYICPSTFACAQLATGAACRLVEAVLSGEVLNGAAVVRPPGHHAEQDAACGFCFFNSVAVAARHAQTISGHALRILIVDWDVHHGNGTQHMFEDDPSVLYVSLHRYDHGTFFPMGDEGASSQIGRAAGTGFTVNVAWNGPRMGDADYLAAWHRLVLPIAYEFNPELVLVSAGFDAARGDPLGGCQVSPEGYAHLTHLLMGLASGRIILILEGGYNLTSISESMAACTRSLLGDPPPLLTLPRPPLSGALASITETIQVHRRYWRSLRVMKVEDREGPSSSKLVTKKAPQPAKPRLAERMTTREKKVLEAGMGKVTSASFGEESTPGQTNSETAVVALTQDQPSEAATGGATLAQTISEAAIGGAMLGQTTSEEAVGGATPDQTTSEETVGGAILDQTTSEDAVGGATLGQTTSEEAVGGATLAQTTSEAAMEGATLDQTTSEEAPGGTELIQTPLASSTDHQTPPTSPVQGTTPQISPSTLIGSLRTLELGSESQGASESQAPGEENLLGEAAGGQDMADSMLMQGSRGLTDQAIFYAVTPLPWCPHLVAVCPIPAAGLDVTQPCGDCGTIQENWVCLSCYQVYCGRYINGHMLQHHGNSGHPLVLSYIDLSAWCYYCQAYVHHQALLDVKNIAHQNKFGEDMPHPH
Protocol: as §1, §2

Work on `Nc1ccc(CCc2ccc(C(=O)Nc3ccccc3N)cc2)cc1` [Compound (5)] yielded an inhibition at 10 µM (HDAC-11) of 15 ± 0.6%, an inhibition at 10 µM (HDAC-9) of 7 ± 0.4% and an inhibition at 10 µM (HDAC-6) of 3 ± 0.4%.
